Reference: US9550796B2, “Pyrrolopyrrolone derivatives and their use as BET inhibitors” (NOVARTIS AG, priority 2013, dated 2017)

Columns and labels:
K-562 = experiment: Cell growth inhibition assay (CellTiter-Glo), K-562; type: cell-based, human; conditions: K-562 cells, 4 days; for GI50: Homo sapiens, K562, 96 h, half-maximal growth inhibition; for K-562 TGI: total growth inhibition
Procedure: (§1) Cell Growth Inhibition Assay
(§2) The human leukemia cell lines MV-4-11, THP-1 and K-562 were employed to characterize the effect of BET inhibitors on cellular proliferation and viability. Cells were obtained from the American Type Culture Collection (ATCC) and cultured at 37° C. in a humidified 5% CO2 incubator in the following media: MV-4-11: DMEM high glucose (Animed #1-26F01-I), 10% FCS (Animed #2-01F26-I), 4 mM L-Glutamine (Animed #5-10K50), 1 mM Sodium Pyruvate (Animed # G03625P), 1× Penicillin-Streptomycin (Animed # F12478P); K-562: Iscove's MEM (Animed #1-28F16-I), 10% FCS (Animed #2-01F26-I), 4 mM L-Glutamine (Animed #5-10K50), 1× Penicillin-Streptomycin (Animed # F12478P); THP-1: RPMI-1640 (Animed #1-41F01-I), 10% FCS (Animed #2-01F26-I), 2 mM L-Glutamine (Animed #5-10K50), 10 mM HEPES (Animed #5-31F100), 1 mM Sodium Pyruvate (Animed # G03625P), 1× Penicillin-Streptomycin (Animed # F12478P). The AML lines MV-4-11 and THP-1 are very sensitive to BET inhibitors and show massive cell death upon BET inhibition (Zuber et al., Nature, 478 (2011), 524-8). Compound-mediated suppression of cell proliferation/viability was assessed by quantification of cellular ATP levels using the CellTiter-Glo (CTG) reagent (Promega). Briefly, cells were seeded in 20 μl fresh medium into 384-well plates, followed by addition of 5 μL medium containing compound dilutions at 5-fold their final intended concentration. Dose-response effects were assessed by 3-fold serial dilutions of the test compound, starting at 10 μM. Following incubation of the cells for 4 days at 37° C. and 5% CO2, the effect of inhibitors on cell viability was quantified following addition of 20 μl CTG and luminescence quantification (integration time: 100 ms) as per vendor manual, using a correspondingly equipped Tecan M200 multi-mode platereader (TECAN, Switzerland). For data analysis, the assay background value determined in wells containing medium, but no cells, was subtracted from all data points. To enable differentiation of cytotoxic from cytostatic compounds, the number of viable cells is assessed relative to that observed at the time of compound addition using a separate cell plate (day 0). The effect of a particular test compound concentration on cell proliferation/viability is expressed as percentage of the background- and day 0-corrected luminescence reading obtained for cells treated with vehicle only (DMSO, 0.1% final concentration), which is set as 100%, whereas that luminescence reading for wells containing medium is set as −100%. Compound concentrations leading to half-maximal (IC50) and total growth inhibition (TGI) were determined using standard four parameter curve fitting.

CREBBP = CREBBP (Homo sapiens (Human), UniProt Q92793); experiment: AlphaScreen in-vitro binding assay for CREBBP; conditions: 324 nM His-CREBBP (1081-1197), acetyl-histone H4 (AcK 5, 8, 12) peptide
Sequence of CREBBP (Q92793 1081-1197): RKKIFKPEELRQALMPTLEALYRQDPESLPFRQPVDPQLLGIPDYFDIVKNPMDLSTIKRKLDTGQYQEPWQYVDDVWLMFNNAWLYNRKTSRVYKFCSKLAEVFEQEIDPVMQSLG
Procedure: AlphaScreen In-Vitro Binding Assay for CREBBP
In order to assess bromodomain selectivity, we set up a binding assay using the bromodomain encoded by the CREBBP gene. […] The assay was started by stepwise addition of 4.5 μL per well of bromo domain protein (50 mM HEPES, pH 7.5, 0.005% Tween20, 0.02% BSA, 150 mM NaCl, 324 nM His-CREBBP (1081-1197) (custom production at Viva Biotech Ltd.)) and 4.5 μL per well of peptide solution (50 mM HEPES, pH 7.5, 0.005% Tween20, 0.02% BSA, 150 mM NaCl, 120 nM acetyl-histone H4 (AcK 5, 8, 12) (Biosyntan GmbH)). Reactions were incubated at 30° C. for 35 minutes. Subsequently 4.5 μL per well detection mix (50 mM HEPES, pH 7.5, 0.005% Tween20, 0.02% BSA, 150 mM NaCl, 45 μg/ml Ni-chelate acceptor beads, 45 μg/mL streptavidin-donor beads) (Perkin Elmer)) were added. After 60 minutes incubation at room temperature, plates were measured in a Perkin Elmer EnVision multilabel reader. IC50 values were determined from percent inhibition values at different compound concentrations by non-linear regression analysis.
Test compounds were dissolved in DMSO (10 mM) and transferred into 1.4 mL flat bottom or V-shaped Matrix tubes carrying a unique 2D matrix. The stock solutions were stored at […] if not used immediately. For the test procedure the vials were defrosted and identified by a scanner whereby a working sheet was generated that guided the subsequent working steps. Compound dilutions were made in 96 well plates. This format enabled the assay of maximally […] at 8 concentrations (single points) including 4 reference compounds, if desired (known BET inhibitors from the prior art, for this and other assays of the type disclosed herein). The dilution protocol included the production of “pre-dilution plates”, “master plates” and “assay plates”.
Polypropylene 96-well plates were used as pre-dilution plates. A total of 4 pre-dilution plates were prepared including 10 test compounds each on the plate positions A1-A10, one standard compound at A11 and one DMSO control at […]. All dilution steps were done on a HamiltonSTAR robot.
30 μL of individual compound dilutions including standard compound and controls of the 4 “pre-dilution plates” were transferred into a 384-well “master plate” including the following concentrations 10000, […], 1000, 300, 100, 30, 10 and 3 μM, respectively in 90% of DMSO.
Identical “assay plates” were then prepared by pipetting 50 nL each of compound dilutions of the “master plates” into 384-well “assay plates” by means of a HummingBird 384-channel dispenser. These plates were used directly for the assay which was performed in a total volume of 13.55 μL.

BRD4 = BRD4 (Homo sapiens (Human), UniProt O60885); experiment: TR-FRET in-vitro binding assay for BRD4; conditions: 45 nM His-Brd4(44-477), acetyl-histone H4 (AcK 5, 8, 12, 16) peptide
Procedure: (§3) TR-FRET In-Vitro Binding Assays for BRD2, BRD3, and BRD4: All assays were performed in 384-well microtiter plates. […] Liquid handling and incubation steps were done on an Innovadyne Nanodrop Express equipped with a robotic arm (Thermo CatX, Perkin Elmer/Caliper Twister II) and an incubator (Liconic STX40, Thermo Cytomat 2C450). The assay plates were prepared by addition of 50 nl per well of compound solution in 90% DMSO HummingBird nanodispenser (Zinsser Analytic). […] Reactions were incubated at 30° C. for 35 minutes. […] After 35 minutes incubation at 30° C., plates were measured in a Perkin Elmer EnVision multilabel reader. […] The stock solutions were stored at […] if not used immediately. For the test procedure the vials were defrosted and identified by a scanner whereby a working sheet was generated that guided the subsequent working steps. Compound dilutions were made in 96 well plates. This format enabled the assay of maximally […] at 8 concentrations (single points) including 4 reference compounds, if desired (known BET inhibitors from the prior art, for this and other assays of the type disclosed herein). The dilution protocol included the production of “pre-dilution plates”, “master plates” and “assay plates”. Polypropylene 96-well plates were used as pre-dilution plates. […] All dilution steps were done on a HamiltonSTAR robot. […] Identical “assay plates” were then prepared by pipetting 50 nL each of compound dilutions of the “master plates” into 384-well “assay plates” by means of a HummingBird 384-channel dispenser. These plates were used directly for the assay which was performed in a total volume of 13.55 μL.

THP-1 = experiment: Cell growth inhibition assay (CellTiter-Glo), THP-1; type: cell-based, human; conditions: THP-1 cells, 4 days; for GI50: Homo sapiens, 96 h, half-maximal growth inhibition; for THP-1 TGI: total growth inhibition
Procedure: as §1, §2

MV-4-11 = experiment: Cell growth inhibition assay (CellTiter-Glo), MV-4-11; type: cell-based, human; conditions: MV-4-11 cells, 4 days; for GI50: Homo sapiens, MV4-11, 96 h, half-maximal growth inhibition; for MV-4-11 TGI: total growth inhibition
Procedure: as §1, §2

BRD3 = BRD3 (Homo sapiens (Human), UniProt Q15059); experiment: TR-FRET in-vitro binding assay for BRD3; conditions: 45 nM His-Brd3(20-477), acetyl-histone H4 (AcK 5, 8, 12, 16) peptide
Sequence of BRD3 (Q15059 20-477): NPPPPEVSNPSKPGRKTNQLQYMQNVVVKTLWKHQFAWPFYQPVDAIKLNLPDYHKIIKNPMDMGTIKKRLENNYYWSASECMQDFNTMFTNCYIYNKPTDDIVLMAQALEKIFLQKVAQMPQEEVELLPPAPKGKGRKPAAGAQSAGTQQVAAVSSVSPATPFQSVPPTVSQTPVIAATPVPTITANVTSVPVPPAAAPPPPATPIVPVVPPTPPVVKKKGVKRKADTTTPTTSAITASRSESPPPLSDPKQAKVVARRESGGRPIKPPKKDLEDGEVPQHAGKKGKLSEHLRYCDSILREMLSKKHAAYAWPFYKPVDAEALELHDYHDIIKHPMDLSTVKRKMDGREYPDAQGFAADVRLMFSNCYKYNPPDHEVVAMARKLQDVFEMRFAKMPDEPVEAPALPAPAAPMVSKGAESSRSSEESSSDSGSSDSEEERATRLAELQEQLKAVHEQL
Procedure: as §3

SMILES	GI50 (K-562) [nM]	K-562 TGI (K-562) [nM]	IC50 (CREBBP) [nM]	IC50 (BRD4) [nM]	GI50 (THP-1) [nM]	THP-1 TGI (THP-1) [nM]	GI50 (MV-4-11) [nM]	MV-4-11 TGI (MV-4-11) [nM]	IC50 (BRD3) [nM]
CNC(=O)c1cn(C)c2c1C(=O)N(c1cc(C)c3nnn(C)c3c1)C2c1ccc(Cl)cc1 (stereo not drawn) [Example 98, 6-(4-chlorophenyl)-5-(1,4-dimethyl-1H-benzo[d][1,2,3]triazol-6-yl)-N,1-dimethyl-4-oxo-1,4,5,6-tetrahydropyrrolo[3,4-b]pyrrole-3-carboxamide]	37.3	>8200	6700	< 11	5.57	15.97	4.95	12.53	12
Cc1cn(C)c2c1C(=O)N(c1cc(C)c3nnc(C(F)F)n3c1)C2c1ccc(Cl)cc1 (stereo not drawn) [Example 107, 6-(4-chlorophenyl)-5-(3-(difluoromethyl)-8-methyl-[1,2,4]triazolo[4,3-a]pyridin-6-yl)-1,3-dimethyl-5,6-dihydropyrrolo[3,4-b]pyrrol-4(1H)-one]	197	>10000	27900	17	15.4	22	7.2	22.95	21
CNC(=O)c1cn(C)c2c1C(=O)N(c1cc(C)c3nnc(C(F)F)n3n1)C2c1ccc(Cl)cc1 (stereo not drawn) [Example 108, 6-(4-chlorophenyl)-5-(3-(difluoromethyl)-8-methyl-[1,2,4]triazolo[4,3-b]pyridazin-6-yl)-N,1-dimethyl-4-oxo-1,4,5,6-tetrahydropyrrolo[3,4-b]pyrrole-3-carboxamide]	322	>10000	> 37000	16	32.3	72.75	43.2	78.35	19
CC(=O)Nc1cn(C)c2c1C(=O)N(c1cc(C)c3nnc(C(F)F)n3n1)C2c1ccc(Cl)cc1 (stereo not drawn) [Example 109, N-(6-(4-chlorophenyl)-5-(3-(difluoromethyl)-8-methyl-[1,2,4]triazolo[4,3-b]pyridazin-6-yl)-1-methyl-4-oxo-1,4,5,6-tetrahydropyrrolo[3,4-b]pyrrol-3-yl)acetamide]	114	>10000	> 37000	23	17.3	38.6	19.4	40.75	20
Cc1cc(N2C(=O)c3c(NC(=O)CCN(C)C)cn(C)c3C2c2ccc(Cl)cc2)nn2c(C(F)F)nnc12 (stereo not drawn) [Example 110, N-(6-(4-chlorophenyl)-5-(3-(difluoromethyl)-8-methyl-[1,2,4]triazolo[4,3-b]pyridazin-6-yl)-1-methyl-4-oxo-1,4,5,6-tetrahydropyrrolo[3,4-b]pyrrol-3-yl)-3-(dimethylamino)propanamide]	211	5640	> 37000	30	257	293.5	10	25.5	37
CNC(=O)Nc1cn(C)c2c1C(=O)N(c1cc(C)c3nnc(C(F)F)n3n1)C2c1ccc(Cl)cc1 (stereo not drawn) [Example 111, 1-(6-(4-chlorophenyl)-5-(3-(difluoromethyl)-8-methyl-[1,2,4]triazolo[4,3-b]pyridazin-6-yl)-1-methyl-4-oxo-1,4,5,6-tetrahydropyrrolo[3,4-b]pyrrol-3-yl)-3-methylurea]	113	>10000	> 37000	< 11	10.7	30.1	13.2	31.2	19
Cc1cc(N2C(=O)c3c(C(=O)NCCN(C)C)cn(C)c3C2c2ccc(Cl)cc2)cc2c1nnn2C (stereo not drawn) [Example 112, 6-(4-chlorophenyl)-5-(1,4-dimethyl-1H-benzo[d][1,2,3]triazol-6-yl)-N-(2-(dimethylamino)ethyl)-1-methyl-4-oxo-1,4,5,6-tetrahydropyrrolo[3,4-b]pyrrole-3-carboxamide]	409	>10000	17300	120	39.3	95.95	19.4	34.75	64
